This passage reports EC50 results from patent US6992215B2, “Thiol-based NAALADase inhibitors” (Guildford Pharmaceuticals Inc., priority 2001, dated 2006).

The structures appear in SMILES notation.

This experiment deals with cortical cell cultures. The experiment can be described thus: In Vitro Assay on Ischemia (glutamate toxicity after potassium cyanide / 2-deoxyglucose insult). It is filed as cell-based. Conditions: concentration required to cause a 50% reduction in glutamate toxicity following an ischemic insult. The procedure: To examine the in vitro effect of the inventive compounds on ischemia, cortical cell cultures were treated with various compounds of this invention during an ischemic insult utilizing potassium cyanide and 2-deoxyglucose, and for one hour thereafter. For a description of the experimental method used, see Vornov et al., J. Neurochem., Vol. 65, No. 4, pp. […] (1995).

As a reminder, the EC50 is the concentration at which the effect is half-maximal. Higher therefore signals a less potent agent. Turning to `O=C(O)c1ccc(CC(CCCS)C(=O)O)cc1` (stereo not drawn) [Compound 6, 4-carboxy-alpha-(3-mercaptopropyl)-benzenepropanoic acid], the EC50 was found to be 17.8 nM. Under `CS(=O)(=O)c1ccc(CC(CCCS)C(=O)O)cc1` (stereo not drawn) [Compound 7, alpha-(3-mercaptopropyl)-4-(methylsulfonyl)-benzenepropanoic acid] stands 1060 nM; under `N#Cc1ccccc1CC(CCCS)C(=O)O` (stereo not drawn) [Compound 8, 2-cyano-alpha-(3-mercaptopropyl)-benzenepropanoic acid], 133 nM. For the compound `O=C(O)c1cc(CC(CCCS)C(=O)O)cc(C(=O)O)c1` (stereo not shown) [Compound 9, 5-(2-carboxy-5-mercaptopentyl)-1,3-benzenedicarboxylic acid], the response was half-maximal at 104 nM (EC50). Under `O=C(O)c1ccc(Cl)c(CC(CCCS)C(=O)O)c1` (stereo not drawn) [Compound 10, 5-carboxy-2-chloro-alpha-(3-mercaptopropyl)-benzenepropanoic acid] stands 7.7 nM. Next, `O=C(O)c1cc(CC(CCCS)C(=O)O)ccc1F` (stereo not drawn) [Compound 11, 3-carboxy-4-fluoro-alpha-(3-mercaptopropyl)-benzenepropanoic acid]: 15.4 nM; `N#Cc1ccccc1-c1ccc(CC(CCCS)C(=O)O)cc1` (stereo not drawn) [Compound 12, 4-(2-cyanophenyl)-alpha-(3-mercaptopropyl)-benzenepropanoic acid]: 188 nM. For `NC(=O)c1ccccc1CC(CCCS)C(=O)O` (stereo not drawn) [Compound 13, 2-(aminocarbonyl)-alpha-(3-mercaptopropyl)-benzenepropanoic acid], a half-maximal response (EC50) required 10000 nM. Under `O=C(O)c1cccc(OC(CCCS)C(=O)O)c1` (stereo not shown) [Compound 14, 3-(1-carboxy-4-mercaptobutoxy)-benzoic acid] stands 16 nM. Under `O=C(O)C(CCCS)Oc1ccccc1` (stereo not shown) [Compound 15, 5-mercapto-2-phenoxy-pentanoic acid] stands 1000 nM; under `COc1cc(OC)cc(OC(CCCS)C(=O)O)c1` (stereo not shown) [Compound 16, 2-(3,5-dimethoxyphenoxy)-5-mercapto-pentanoic acid], 267 nM. Next, `O=C(O)Cc1cccc(OC(CCCS)C(=O)O)c1` (stereo not shown) [Compound 20, 3-(1-carboxy-4-mercaptobutoxy)-benzeneacetic acid]: 39.3 nM; `O=C(O)Cc1ccc(OC(CCCS)C(=O)O)cc1` (stereo not shown) [Compound 21, 4-(1-carboxy-4-mercaptobutoxy)-benzeneacetic acid]: 11.6 nM; `CC(=O)c1cccc(OC(CCCS)C(=O)O)c1` (stereo not shown) [Compound 23, 2-(3-acetylphenoxy)-5-mercapto-pentanoic acid]: 21 nM. `CC(=O)Nc1ccc(CC(CCCS)C(=O)O)cc1` (stereo not drawn) [Compound 26, 4-(acetylamino)-alpha-(3-mercaptopropyl)-benzenepropanoic acid] yielded a concentration giving a half-maximal response (EC50) of 1800 nM. This EC50 is about 86-fold higher than that of the compound before. In turn, `COc1ccc(C(=O)O)cc1OC(CCCS)C(=O)O` (stereo not shown) [Compound 27, 3-(1-carboxy-4-mercaptobutoxy)-4-methoxy-benzoic acid] displayed an EC50 of 155 nM.

For the compound `O=C(O)Cc1ccc(CC(CCCS)C(=O)O)cc1` (stereo not drawn) [Compound 28, 4-(carboxymethyl)-alpha-(3-mercaptopropyl)-benzenepropanoic acid], a half-maximal effect (EC50) was put at 48 nM.

Regarding `O=C(O)c1ccc(OC(CCCS)C(=O)O)cc1` (stereo not shown) [Compound 30, 4-(1-carboxy-4-mercaptobutoxy)-benzoic acid], it took 399 nM to reach a half-maximal effect (EC50). Under `O=C(O)c1cccc(CC(CCCS)C(=O)O)c1Cl` (stereo not drawn) [Compound 31, 3-carboxy-2-chloro-alpha-(3-mercaptopropyl)-benzenepropanoic acid] stands 31 nM; under `O=C(O)c1cc(CC(CCCS)C(=O)O)ccc1Cl` (stereo not drawn) [Compound 32, 3-carboxy-4-chloro-alpha-(3-mercaptopropyl)-benzenepropanoic acid], 7 nM; under `O=C(O)c1ccc(Cl)c(OC(CCCS)C(=O)O)c1` (stereo not shown) [Compound 33, 3-(1-carboxy-4-mercaptobutoxy)-4-chloro-benzoic acid], 110 nM. Under `O=C(O)c1ccc(F)c(OC(CCCS)C(=O)O)c1` (stereo not shown) [Compound 34, 3-(1-carboxy-4-mercaptobutoxy)-4-fluoro-benzoic acid] stands 346 nM; under `O=C(O)c1ccc(F)c(CC(CCCS)C(=O)O)c1` (stereo not drawn) [Compound 35, 5-carboxy-2-fluoro-alpha-(3-mercaptopropyl)-benzenepropanoic acid], 23 nM; under `COc1ccc(C(=O)O)cc1CC(CCCS)C(=O)O` (stereo not drawn) [Compound 36, 5-carboxy-alpha-(3-mercaptopropyl)-2-methoxy-benzenepropanoic acid], 74.9 nM. Take `O=C(O)c1ccc(CC(CCCS)C(=O)O)c2ccccc12` (stereo not drawn) [Compound 37, 4-carboxy-alpha-(3-mercaptopropyl)-1-naphthalenepropanoic acid]: it took 215 nM to reach a half-maximal effect (EC50).

In the case of `O=C(O)c1ccccc1CC(CCCS)C(=O)O` (stereo not drawn) [Compound 38, 2-carboxy-alpha-(3-mercaptopropyl)-benzenepropanoic acid], the EC50 was 762 nM. The compound `O=C(O)c1c(F)c(F)c(CC(CCCS)C(=O)O)c(F)c1F` (stereo not drawn) [Compound 39, 4-carboxy-2,3,5,6-tetrafluoro-alpha-(3-mercaptopropyl)-benzenepropanoic acid] returned an EC50 of 290 nM. The compound `O=C(O)C(CCCS)Sc1ccccc1` (stereo not shown) [Compound 40, 5-mercapto-2-(phenylthio)-pentanoic acid] gave a concentration giving a half-maximal response (EC50) of 452 nM. `O=C(O)C(CCCS)Cc1ccccc1Cl` (stereo not drawn) [Compound 43, 2-chloro-alpha-(3-mercaptopropyl)-benzenepropanoic acid] came in with an EC50 of 452 nM. Under `O=C(O)c1cc(Br)cc(CC(CCCS)C(=O)O)c1` (stereo not drawn) [Compound 45, 3-bromo-5-carboxy-alpha-(3-mercaptopropyl)-benzenepropanoic acid] stands 2 nM; under `O=C(O)CNC(=O)c1cccc(CC(CCCS)C(=O)O)c1` (stereo not drawn) [Compound 46, 3-[[(carboxymethyl)amino]carbonyl]-alpha-(3-mercaptopropyl)-benzenepropanoic acid], 544 nM; under `O=C(O)c1ccc(CC(CCCS)C(=O)O)cc1Br` (stereo not drawn) [Compound 47, 3-bromo-4-carboxy-alpha-(3-mercaptopropyl)-benzenepropanoic acid], 119 nM.

On to `O=C(O)c1cc(CC(CCCS)C(=O)O)cc([N+](=O)[O-])c1` (stereo not drawn) [Compound 48, 3-carboxy-alpha-(3-mercaptopropyl)-5-nitro-benzenepropanoic acid], for which the concentration giving a half-maximal response (EC50) came to 2.4 nM. `O=C(O)c1ccc([N+](=O)[O-])c(CC(CCCS)C(=O)O)c1` (stereo not drawn) [Compound 50, 5-carboxy-alpha-(3-mercaptopropyl)-2-nitro-benzenepropanoic acid] returned a 50% effective concentration (EC50) of 26 nM.

Compound `O=C(O)c1cc(CC(CCCS)C(=O)O)cc(-c2ccccc2)c1` (stereo not shown) [Compound 55, 5-(2-carboxy-5-mercaptopentyl)-[1,1′-biphenyl]-3-carboxylic acid] returned an EC50 of 1 nM. Under `O=C(O)c1ccc(-c2ccccc2)c(CC(CCCS)C(=O)O)c1` (stereo not shown) [Compound 56] stands 11 nM; under `O=C(O)c1cccc(CC(CCCS)C(=O)O)c1-c1ccccc1` (stereo not shown) [Compound 57, 6-(2-carboxy-5-mercaptopentyl)-[1,1′-biphenyl]-2-carboxylic acid], 21 nM.
